Activity calls are given as the source filed them.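 How the source made its calls: active means half-maximal concentration for the rise in caspase light signal at or below ten times the top tested dose; inconclusive means flat fit between 30% and 70% activity, or unreliable curve fit; inactive means the rest.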
test system: MEF A1-2A-BIM cells, caspase 3/7 luminescence, 3 h; assay: caspase activation in A1-2A-BIM MEF cells, dose response, A1 inhibitor project, cell-based, luminescence, retest (AID 2765)

Structure (SMILES)	EC50
COc1cc(NC(=O)c2ccc(C)cc2C)ccc1NC(=O)c1cc2ccccc2o1	26.7 µM
COc1ccc(-c2ccc3c(c2)S(=O)(=O)c2cccc(C(=O)NCCOc4ccccc4)c2C3=O)cc1OC	> 35 µM (inactive)
O=C(NC1CCCCC1)c1cccc2c1C(=O)c1ccc(-c3ccc(OC(F)(F)F)cc3)cc1S2(=O)=O	27.5 µM
Cn1nnnc1Sc1ncnc2scc(-c3cccc4c3sc3ccccc34)c12	> 35 µM (inactive)
CC(Oc1ccccc1)C(=O)N1CCN=C1SCc1ccccc1 (stereo not given)	> 35 µM (inactive)
COc1ccc(CNC(=O)Cc2cccs2)cc1OC	> 35 µM (inactive)
Cc1ccc(C)c(NC(=O)COC(=O)c2cc3ccccc3oc2=O)c1	> 35 µM (inactive)
C[C@H](CO)N1C[C@H](C)[C@@H](CN(C)C(=O)NC2CCCCC2)Oc2c(NS(=O)(=O)c3cn(C)cn3)cccc2C1=O	> 35 µM (inactive)
CS(=O)(=O)Nc1ccc(C2=NN(C(=O)c3cccc(F)c3)C(c3cccs3)C2)cc1 (stereo not given)	> 35 µM (inactive)
Cc1c(C)c(C)c(C(=O)CCc2cccc(NC(=O)CCC(=O)O)c2)c(C)c1C	> 35 µM (inactive)
CC1CCN(CCCNC(=O)c2cn(C)c3ccc(S(=O)(=O)N4CCCC4)cc3c2=O)CC1	> 35 µM (inactive)
CC(C)CCNC(=O)c1cc(-c2ccncc2)nc2ccc(S(=O)(=O)N3CCOCC3)cc12	> 35 µM (inactive)
CC(=O)c1cccc(CN2CCN(CCc3ccccc3)C(CCO)C2)c1 (stereo not given)	> 35 µM (inactive)
Cc1ccc(NC(=O)c2cccc(S(=O)(=O)NCc3ccccc3)c2)nc1	> 35 µM (inactive)
COC(=O)N(NC(=O)C(O)(c1ccccc1)c1ccccc1)c1ccc(C)cc1	> 35 µM (inactive)
NC(=O)CCSC(=S)N1CCOCC1	> 35 µM (inactive)
CC1CCCCC12NC(=O)N(CC(=O)c1ccc(Cl)s1)C2=O (stereo not given)	> 35 µM (inactive)
CCOC(=O)/C(=C\c1ccc(OC(F)F)cc1)C1=Nn2c(nnc2-c2ccc(Cl)cc2)SC1	6.18 µM
COc1cc2c3c([nH]c2cc1F)C(=O)NCC3	> 35 µM (inactive)
CCN(CC)C(=O)Oc1ccc(Br)c2ccccc12	> 35 µM (inactive)
NCCCC[C@H](N[C@@H](CCc1ccccc1)C(=O)O)C(=O)N1CCC[C@H]1C(=O)O	> 35 µM (inactive)
COc1cc(Cl)c(C)cc1NC(=O)CSc1cc(Cl)ccc1Cl	> 35 µM (inactive)
COc1ccc(NC(=O)c2oc3ccccc3c2NC(=O)C2CC2)cc1	> 35 µM (inactive)
Cc1ccc(S(=O)(=O)N2CCCC2)cc1C(=O)NCc1ccccc1CN1CCCC1	> 35 µM (inactive)

Structure (SMILES)	EC50
Cc1cc(=O)oc2c(C)c(OCC(=O)N3CCN(C(=O)C4COc5ccccc5O4)CC3)ccc12 (stereo not given)	> 35 µM (inactive)
CC(=O)Nc1ccc([N+](=O)[O-])c(CS(=O)(=O)c2ccc(C)cc2)c1[N+](=O)[O-]	> 35 µM (inactive)
Cc1c(O)c(=O)ccn1Cc1ccccc1	> 35 µM (inactive)
O=C(NC(Cc1ccccc1)C(=O)N1CCCCCC1)c1ccccc1 (stereo not given)	> 35 µM (inactive)
CCc1nc(N=Nc2c(O)[nH]c3ccccc23)c2c3c(sc2n1)CCC3	20.8 µM
O=C(NCCCN1CCCCC1)c1ccc2c(c1)NC(=O)c1ccccc1S2	> 35 µM (inactive)
CC(=O)c1cc(C#N)c(SCC(=O)Nc2nccs2)nc1C	> 35 µM (inactive)
CC(C)Oc1ccccc1C(=O)NC(CO)C(=O)O (stereo not given)	> 35 µM (inactive)
O=C(Nc1ccccc1N1CCCC1)C1CCN(S(=O)(=O)c2ccc(F)cc2)CC1	> 35 µM (inactive)
NC(=NCCCCCCN=C(N)/N=C(\N)Nc1ccc(Cl)cc1)/N=C(\N)Nc1ccc(Cl)cc1	> 35 µM (inactive)
COc1ccc(C(=O)Nc2ccc(S(=O)(=O)NC(C)=O)cc2)cc1[N+](=O)[O-]	> 35 µM (inactive)
O=C(CSc1nnc(-c2ccncc2)o1)Nc1ccc(F)c(F)c1	> 35 µM (inactive)
Cc1cccc2c3c([nH]c12)CCN(C)C3	> 35 µM (inactive)
Cc1ccc(N(Cc2cc(=O)[nH]c3ccccc23)C(=O)CCl)cc1	> 35 µM (inactive)
COc1ccc(NC(=O)c2ccco2)c(NC(=O)c2ccc([N+](=O)[O-])cc2)c1	> 35 µM (inactive)
CCOCCCNC(=O)c1ccc2c(c1)N=C(CC)c1cc(Br)ccc1S2	> 35 µM (inactive)
O=C(Nc1cccc([N+](=O)[O-])c1)Nc1ccc2c(c1)CCC2	> 35 µM (inactive)
Cc1ccc(CSc2ncnc3c2cnn3-c2ccccc2)cc1	> 35 µM (inactive)
CN(C(=O)CSc1ccncc1)C1CCCN(Cc2ccccc2F)C1 (stereo not given)	> 35 µM (inactive)
O=C1NC(=O)c2cc(NC(=O)C3CCCO3)ccc21 (stereo not given)	> 35 µM (inactive)
Cc1nnc(SCC(=O)NN2C(=O)NC3(CCCCC3)C2=O)s1	> 35 µM (inactive)
CCOC(=O)CSc1nnc(Cc2ccc(OC)cc2)n1-c1ccccc1	> 35 µM (inactive)
O=C(COc1ccc(/C=N/NC(=O)c2cc3ccccc3o2)cc1Cl)Nc1ccccc1	6.55 µM
COCC(=O)NC(C)c1nc2ccccc2[nH]1 (stereo not given)	> 35 µM (inactive)

Structure (SMILES)	EC50
NC(N)=N/N=C/c1cccc([N+](=O)[O-])c1O	> 35 µM (inactive)
CCc1ccccc1NC(=O)C(CC)Sc1nc2cc3c(cc2c(=O)n1Cc1ccco1)OCO3 (stereo not given)	> 35 µM (inactive)
CCOC(=O)CS(=O)(=O)c1nc(-c2ccccc2)cc(C(F)(F)F)n1	> 35 µM (inactive)
CCN(CC)CCN(C(=O)c1cc2c(ccc3ccccc32)oc1=O)c1nc2cc3c(cc2s1)OCCO3	8.31 µM
N#CCn1nnc(-c2ccc3c(c2)OCO3)n1	> 35 µM (inactive)
Cc1nccc2c1[nH]c1ccccc12	> 35 µM (inactive)
O=C1C2CCCN2C(c2cccc(Br)c2)N1c1ccc(F)cc1 (stereo not given)	> 35 µM (inactive)
Cc1ccc(S(=O)(=O)n2ccc3c(OCCOCCNCc4ccc(F)cc4)cccc32)cc1	> 35 µM (inactive)
O=C(NCCN1CCOCC1)c1cc(Cl)ccc1Cl	> 35 µM (inactive)
CC(=O)Nc1ncnc2c1c(-c1ccc(Cl)cc1)nn2C(C)(C)C	> 35 µM (inactive)
CCOc1ccccc1/C=C/c1nc2ccccc2[nH]c1=O	> 35 µM (inactive)
CCCCc1ccc(NC(=O)CN(C)CC(=O)Nc2ccccc2Cl)cc1	> 35 µM (inactive)
CC(=O)c1ccc(N2CCN(S(=O)(=O)c3c(C(=O)N4CCCC4)c(C)n(C)c3C)CC2)cc1	> 35 µM (inactive)
COC(=O)c1cc(CNC(=O)CC(C)c2ccccc2)ccc1OC (stereo not given)	> 35 µM (inactive)
CCC(C)[C@@H](C(=O)NCC1CCC(C(=O)O)CC1)n1nnc2ccccc2c1=O (stereo not given in full)	> 35 µM (inactive)
CC(C)(C)c1ccc2c(c1)OC(C(=O)N/N=C\c1ccc[nH]1)CO2 (stereo not given)	> 35 µM (inactive)
CC(=O)Nc1ccc(SC[C@H](Cc2ccccc2)N2CC[C@@H](C(C)(C)C)CCC2=O)cc1	> 35 µM (inactive)
S=C(NCCc1ccccc1)NC1CCCCCC1	> 35 µM (inactive)
O=C(O)c1ccc2c(c1)C(=O)N(c1ccc(Cl)cn1)C2=O	> 35 µM (inactive)
CC(=O)c1ccc(NC(=O)CO/N=C(\C)c2cccs2)cc1	> 35 µM (inactive)
O=C(Nc1nnc(C2CCCCC2)s1)C1CC(=O)N(c2ccc(F)cc2)C1 (stereo not given)	> 35 µM (inactive)
CC(=O)Nc1ccc(/C(C)=N/Nc2nc(Nc3ccccc3)nc(N3CCOCC3)n2)cc1	> 35 µM (inactive)

Reference: PubChem BioAssay AID2765 (Broad Institute, 2010)
